# Data: the supplement of paper PMC10307832
# Assays:
# Assay in all cases: relative viability (nuclei count vs DMSO), 5 days (fraction); higher = more cells survive
# NCI-H1915 = tested on: NCI-H1915
# Method in brief: (§1)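 Relative viability divides the nuclei count in treated wells by that in vehicle wells. Lung cancer cell lines were seeded in 1536-well plates, dosed by pin tool the next day, and fixed and stained after 5 days in one step with final 0.05% Triton X-100, 1% formaldehyde and 1 ug/ml Hoechst. Dosing was a single drug or a fixed anchor-drug dose plus five library-drug doses (not always all listed) in √10 steps, and values are medians of duplicate plates imaged at 4×.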
# SW 900 = tested on: SW 900
# Method in brief: as §1
# NCI-H1755 = tested on: NCI-H1755
# Method in brief: as §1
# NCI-H596 = tested on: NCI-H596
# Method in brief: as §1
# LCLC-103H = tested on: LCLC-103H
# Method in brief: as §1
# RERF-LC-KJ = tested on: RERF-LC-KJ
# Method in brief: as §1
# SK-MES-1 = tested on: SK-MES-1
# Method in brief: as §1
# NCI-H1651 = tested on: NCI-H1651
# Method in brief: as §1
# NCI-H441 = tested on: NCI-H441
# Method in brief: as §1
# NCI-H460 = tested on: NCI-H460
# Method in brief: as §1
# NCI-H661 = tested on: NCI-H661
# Method in brief: as §1
structure (smiles),measurement,setting,value
Clc1ccc(Nc2nnc(Cc3ccncc3)c3ccccc23)cc1 [Vatalanib] + Cc1cc(Nc2cc(N3CCN(C)CC3)nc(Sc3ccc(NC(=O)C4CC4)cc3)n2)n[nH]1 [Tozasertib] (partner 0.1 µM),relative viability,NCI-H1915; first compound 0.04 µM,0.457
same,relative viability,NCI-H1915; first compound 0.1265 µM,0.413
same,relative viability,NCI-H1915; first compound 0.4 µM,0.468
same,relative viability,NCI-H1915; first compound 1.265 µM,0.385
same,relative viability,NCI-H1915; first compound 4 µM,0.442
same,relative viability,SW 900; first compound 0.1265 µM,0.563
same,relative viability,SW 900; first compound 0.4 µM,0.68
same,relative viability,SW 900; first compound 1.265 µM,0.482
same,relative viability,SW 900; first compound 4 µM,0.572
same,relative viability,NCI-H1755; first compound 0.04 µM,0.587
same,relative viability,NCI-H1755; first compound 0.1265 µM,0.612
same,relative viability,NCI-H1755; first compound 0.4 µM,0.701
same,relative viability,NCI-H1755; first compound 1.265 µM,0.58
same,relative viability,NCI-H1755; first compound 4 µM,0.628
same,relative viability,NCI-H596; first compound 0.04 µM,0.783
same,relative viability,NCI-H596; first compound 0.1265 µM,0.821
same,relative viability,NCI-H596; first compound 0.4 µM,0.831
same,relative viability,NCI-H596; first compound 1.265 µM,0.747
same,relative viability,NCI-H596; first compound 4 µM,0.952
same,relative viability,LCLC-103H; first compound 0.04 µM,0.482
same,relative viability,LCLC-103H; first compound 0.1265 µM,0.518
same,relative viability,LCLC-103H; first compound 0.4 µM,0.532
same,relative viability,LCLC-103H; first compound 1.265 µM,0.503
same,relative viability,LCLC-103H; first compound 4 µM,0.502
same,relative viability,RERF-LC-KJ; first compound 0.04 µM,0.602
same,relative viability,RERF-LC-KJ; first compound 0.1265 µM,0.555
same,relative viability,RERF-LC-KJ; first compound 0.4 µM,0.511
same,relative viability,RERF-LC-KJ; first compound 1.265 µM,0.454
same,relative viability,RERF-LC-KJ; first compound 4 µM,0.436
same,relative viability,SK-MES-1; first compound 0.04 µM,0.951
same,relative viability,SK-MES-1; first compound 0.1265 µM,0.897
same,relative viability,SK-MES-1; first compound 0.4 µM,1.01
same,relative viability,SK-MES-1; first compound 1.265 µM,0.813
same,relative viability,SK-MES-1; first compound 4 µM,0.803
same,relative viability,NCI-H1651; first compound 0.04 µM,0.845
same,relative viability,NCI-H1651; first compound 0.1265 µM,0.668
same,relative viability,NCI-H1651; first compound 0.4 µM,0.701
same,relative viability,NCI-H1651; first compound 1.265 µM,0.667
same,relative viability,NCI-H1651; first compound 4 µM,0.629
same,relative viability,NCI-H441; first compound 0.04 µM,0.847
same,relative viability,NCI-H441; first compound 0.1265 µM,0.746
same,relative viability,NCI-H441; first compound 0.4 µM,0.643
same,relative viability,NCI-H441; first compound 1.265 µM,0.659
same,relative viability,NCI-H441; first compound 4 µM,0.598
same,relative viability,NCI-H460; first compound 0.04 µM,0.656
same,relative viability,NCI-H460; first compound 0.1265 µM,0.299
same,relative viability,NCI-H460; first compound 1.265 µM,0.296
same,relative viability,NCI-H460; first compound 4 µM,0.397
same,relative viability,NCI-H661; first compound 0.04 µM,0.357
same,relative viability,NCI-H661; first compound 0.1265 µM,0.363
same,relative viability,NCI-H661; first compound 0.4 µM,0.331
same,relative viability,NCI-H661; first compound 1.265 µM,0.357
